The target in assay [1] is T1, CD73 (Homo sapiens, UniProt P21589).
T1 construct: purchased R&D systems 5795-EN-010
T1 sequence (P21589 27-547 limits assumed): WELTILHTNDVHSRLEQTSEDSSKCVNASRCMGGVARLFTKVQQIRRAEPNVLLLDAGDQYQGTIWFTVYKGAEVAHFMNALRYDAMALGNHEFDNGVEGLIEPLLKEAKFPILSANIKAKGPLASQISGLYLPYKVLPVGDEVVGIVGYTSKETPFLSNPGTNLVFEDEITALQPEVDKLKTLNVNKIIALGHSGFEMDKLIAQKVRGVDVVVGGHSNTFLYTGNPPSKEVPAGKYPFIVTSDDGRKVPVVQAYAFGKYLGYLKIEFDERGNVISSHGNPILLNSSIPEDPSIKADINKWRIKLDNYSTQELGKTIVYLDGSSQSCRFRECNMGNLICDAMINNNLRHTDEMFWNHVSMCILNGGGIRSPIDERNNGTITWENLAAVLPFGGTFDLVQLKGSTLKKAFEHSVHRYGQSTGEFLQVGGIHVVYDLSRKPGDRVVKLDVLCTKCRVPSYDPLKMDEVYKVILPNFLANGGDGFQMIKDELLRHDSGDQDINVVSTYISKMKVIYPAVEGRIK
Put plainly: In vitro enzymatic activity against CD73 (malachite green test using soluble CD73). The format is biochemical. The following applies: soluble CD73 36 ng/mL, 50 μM AMP, 30 minutes at 25° C. The method, then:
The malachite green test using soluble CD73, which is synthesized in vitro was used in the present invention to determine the characteristics of inhibitory activity of the compounds against CD73. The specific experimental procedures were as following:
1. The enzyme reaction in this experiment was carried out in 384-well plates, and CD73 (R&D systems #5795-EN-010) at a concentration of 36 ng/mL, the compounds at different concentrations and 50 μM AMP were incubated for 30 minutes at 25° C. in a 40 uL reaction system (consisting of 25 mM Tris pH 7.5, 5 mM MgCl2, and 0.005% Tween-20);
2. Then, 10 μL of malachite green solution (Sigma) was added to each well to terminate the reaction;
3. The concentration of resulting inorganic phosphate was determined according to the instructions of the reagent manufacturer;
4. The enzymatic activity of CD73 was calculated based on the concentration of the product, and then IC50 values were determined by non-linear regression analysis of the inhibition percentage of the compounds of the present invention at different concentrations.

Assay [2] concerns the target T2, CD73 enzymatic activity expressed on the cell surface of MDA-MB-231 cells (Homo sapiens, UniProt P21589).
T2 construct: Human breast cancer cells MDA-MB-231 that endogenously express CD73 were used; host or cells: MDA-MB-231
T2 sequence (P21589 27-549): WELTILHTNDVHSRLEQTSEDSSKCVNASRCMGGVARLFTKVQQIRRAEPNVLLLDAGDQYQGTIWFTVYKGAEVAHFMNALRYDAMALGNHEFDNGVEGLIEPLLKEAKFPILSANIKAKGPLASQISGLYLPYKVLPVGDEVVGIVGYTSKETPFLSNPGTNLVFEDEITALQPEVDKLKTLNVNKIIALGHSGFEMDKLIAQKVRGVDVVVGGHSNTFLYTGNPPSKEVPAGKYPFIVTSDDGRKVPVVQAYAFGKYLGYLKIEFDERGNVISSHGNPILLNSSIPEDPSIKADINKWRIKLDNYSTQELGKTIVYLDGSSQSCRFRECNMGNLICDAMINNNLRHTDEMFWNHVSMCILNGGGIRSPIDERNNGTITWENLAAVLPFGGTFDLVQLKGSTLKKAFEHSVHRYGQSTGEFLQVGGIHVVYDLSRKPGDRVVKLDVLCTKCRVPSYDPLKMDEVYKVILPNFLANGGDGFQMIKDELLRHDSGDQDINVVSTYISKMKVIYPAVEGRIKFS
As to the kind of experiment: Inhibition of CD73 enzymatic activity on the cell surface (Cell Titer Glo (CTG) experiment), MDA-MB-231 cells. The class given is cell-based. The settings on record: MDA-MB-231 cells endogenously expressing CD73, AMP, 37° C. for 2 hours, CTG readout; read-out: Cellular activity IC50. The method, then:
Human breast cancer cells MDA-MB-231 that endogenously express CD73 were used in the present invention to evaluate the inhibition of the compound against the CD73 enzymatic activity expressed on the cell surface. The cells used were from the Cell Bank of the Chinese Academy of Sciences. The specific experimental procedures were as follows:
1. Before the test, MDA-MB231 cells were seeded to a 96-well plate at 20000 cells/well;
2. In RPMI1640, 10% fetal bovine serum (Gibco, 10099-141), placed in a 5% CO2 incubator at 37° C. overnight (the cells were washed three times by using a serum-free RPMI medium right before the test):
3. 50 μl of serum-free media containing the compounds at different concentrations were added to the cells and incubated for 15 minutes;
4. 25 μL of 1.2 mM AMP was added for incubation at 37° C. for 2 hours, 25 μL of supernatant was then collected from the cells and mix with 25 μL of 100 μM ATP, and then the concentration of AMP in the samples was determined by CTG (Promega, #G7573);
5. Then, a reduction ratio of the substrate AMP level in the cell culture supernatant collected after the reaction was quantitatively determined to evaluate the inhibitory effects of the examples of the present invention and the positive compounds against the CD73 enzymatic activity on the cell surface;
6. Finally, the concentration of the compound leading to half maximal inhibition of enzymatic activity (IC50) was determined using a four-parameter non-linear logistic model curve fit in Graphpad Prism.
(In general: Cellular ATP, detected with luciferase, serves as a proxy for viable cell number.)

One may read the IC50 as the concentration that gives 50% inhibition.

`C[C@@H](Nc1nc(Cl)nc2c1cnn2[C@@H]1O[C@H](COP(=O)(O)CP(=O)(O)O)[C@@H](O)[C@H]1O)c1ccc(S(F)(F)(F)(F)F)cc1` [Example 1, (((((2R,3S,4R,5R)-5-(6-chloro-4-(((R)-1-(4-(pentafluoro-λ^6-sulfanyl)phenyl)ethyl)amino)-1H-pyrazolo[3,4-d]pyrimidin-1-yl)-3,4-dihydroxytetrahydrofuran-2-yl)methoxy)(hydroxy)phosphoryl)methyl)phosphonic acid]: the IC50 worked out at 6.8 nM in assay [1] and 0.373 nM in assay [2]. On the same counts, the results for `C[C@H](Nc1nc(Cl)nc2c1cnn2[C@@H]1O[C@H](COP(=O)(O)CP(=O)(O)O)[C@@H](O)[C@H]1O)c1ccc(S(F)(F)(F)(F)F)cc1` [Example 2, (((((2R,3S,4R,5R)-5-(6-chloro-4-(((S)-1-(4-(pentafluoro-λ^6-sulfanyl)phenyl)ethyl)amino)-1H-pyrazolo[3,4-d]pyrimidin-1-yl)-3,4-dihydroxytetra-hydrofuran-2-yl)methoxy)(hydroxy)phosphoryl)methyl)phosphonic acid] are 20.6 nM and 0.73 nM. For the compound `C[C@@H](Nc1nc(Cl)nc2c1cnn2[C@@H]1O[C@H](COP(=O)(O)CP(=O)(O)O)[C@@H](O)[C@H]1O)c1ccc(S(F)(F)(F)(F)F)cc1F` [Example 3, (((((2R,3S,4R,5R)-5-(6-chloro-4-(((R)-1-(2-fluoro-4-(pentafluoro-λ^6-sulfanyl)phenyl)ethyl)amino)-1H-pyrazolo[3,4-d]pyrimidin-1-yl)-3,4-dihydroxytetrahydrofuran-2-yl)methoxy)(hydroxy)phosphoryl)methyl)phosphonic acid], the IC50 in assay [1] was 1.6 nM; in assay [2], 0.722 nM. On the same counts, the results for `C[C@H](Nc1nc(Cl)nc2c1cnn2[C@@H]1O[C@H](COP(=O)(O)CP(=O)(O)O)[C@@H](O)[C@H]1O)c1ccc(S(F)(F)(F)(F)F)cc1F` [Example 4, (((((2R,3S,4R,5R)-5-(6-chloro-4-(((S)-1-(2-fluoro-4-(pentafluoro-λ^6-sulfanyl)phenyl)ethyl)amino)-1H-pyrazolo[3,4-d]pyrimidin-1-yl)-3,4-dihydroxytetrahydrofuran-2-yl)methoxy)(hydroxy)phosphoryl)methyl)phosphonic acid] are 23.4 nM and 0.9 nM.

For `C[C@H](Nc1cc(Cl)nc2c1cnn2[C@@H]1O[C@H](COP(=O)(O)CP(=O)(O)O)[C@@H](O)[C@H]1O)c1ccc(S(F)(F)(F)(F)F)cc1F` [Example 5, (((((2R,3S,4R,5R)-5-(6-chloro-4-(((S)-1-(2-fluoro-4-(pentafluoro-λ^6-sulfanyl)phenyl)ethyl)amino)-1H-pyrazolo[3,4-b]pyridin-1-yl)-3,4-dihydroxytetrahydrofuran-2-yl)methoxy)(hydroxy)phosphoryl)methyl)phosphonic acid], the half-inhibitory concentration (IC50) was determined as 36.5 nM in assay [1] and 0.49 nM in assay [2]. The like results for `C[C@H](Nc1cc(Cl)nc2c1cnn2[C@@H]1O[C@H](COP(=O)(O)CP(=O)(O)O)[C@@H](O)[C@H]1O)c1ccc(S(F)(F)(F)(F)F)cc1` [Example 6, (((((2R,3S,4R,5R)-5-(6-chloro-4-(((S)-1-(4-(pentafluoro-λ^6-sulfanyl)phenyl)ethyl)amino)-1H-pyrazolo[3,4-b]pyridin-1-yl)-3,4-dihydroxytetrahydrofuran-2-yl)methoxy)(hydroxy)phosphoryl)methyl) phosphonic acid] were, in that order, 2.4 nM and 0.302 nM. Take `O=P(O)(O)CP(=O)(O)OC[C@H]1C[C@@H](c2ccc3c(N[C@H]4CCc5ccccc54)nc(Cl)nn23)[C@H](O)[C@@H]1O` [Example 26, (((((1R,2R,3S,4S)-4-(2-chloro-4-(((S)-2,3-dihydro-1H-inden-1-yl)amino)pyrrolo[2,1-f][1,2,4]triazin-7-yl)-2,3-dihydroxy-cyclopentyl)methoxy)(hydroxy)phosphoryl)methyl)phosphonic acid]: the IC50 in assay [2] was found to be 3.18 nM.
